Measurements as given in patent publication EP1337551B1, “SUBSTANCE P ANALOGS FOR THE TREATMENT OF CANCER” (DABUR PHARMA LTD., priority 2000, dated 2002).
Residues, ends and D or L forms follow the SMILES beside them.

Tests used:
[1] = test system: L132 (lung); assay: In vitro cytotoxic activity, MTT assay, 72 hours; assay type: cell-based, human
Description: (§1) The cytotoxic activity of synthesized peptides was tested on six human tumor cell lines namely MCF7 (breast), U373 (glioblastoma), PTC, (colon), L132 (lung), Su.86.86 (pancreas), and KB (oral). The tumor cells were collected at exponential growth phase and resuspended in medium (1.5 x 10^6 cells/ml in RPMI 1640 containing 10% FBS). 150µL of medium was added to the wells of a 96-well tissue culture plate (Nunc, Denmark) followed by 30µl of cell suspension. The plate was left in an incubator (37°C, 5% CO2) overnight. 20µl of the peptide (100 pM to 10 µM concentration) was added to marked wells of the 96-well plate. Each concentration was plated in triplicate. 20µl of medium alone was added to control wells while wells without cells served as blanks. A total volume of 200µL was ensured in each well and plate was left in incubator (37°C, 5% CO2). After 72 hours of incubation an MTT assay was performed and percentage cytotoxicity was calculated with respect to control cells.

[2] = test system: MCF7 (breast); assay: In vitro cytotoxic activity, MTT assay, 72 hours; assay type: cell-based, human
Description: as §1

[3] = test system: PTC, (colon); assay: In vitro cytotoxic activity, MTT assay, 72 hours; assay type: cell-based, human
Description: as §1

[4] = test system: U373 (glioblastoma); assay: In vitro cytotoxic activity, MTT assay, 72 hours; assay type: cell-based, human
Description: as §1

[5] = test system: Su.86.86 (pancreas); assay: In vitro cytotoxic activity, MTT assay, 72 hours; assay type: cell-based, human
Description: as §1

[6] = test system: U87MG (Blioblastoma); assay: In vitro cytotoxic activity of lipo conjugates, MTT assay, 48 hours; assay type: cell-based
Description: (§2) The cytotoxic effect of lipo-conjugates of substance P analogs SEQ ID NO: 6, SEQ ID NO: 7 and SEQ ID NO: 8, was studied by MTT assay which is based on the principle of uptake of MTT [3-[4,5-dimethylthiazol-2-yl]-2,5-diphenyl tetrazolium bromide], a tetrazolium salt by the metabolically active cells where it is metabolized by active mitochondria in to a blue colored formazan product which can be read spectrophotometrically. Briefly, tumor cells - KB (Oral squamous), U87MG (Blioblastoma), HBL100 (Breast), HeP2 (Larngeal), ECV304 (Endothelial), PA-1 (Ovary) and L132 (Lunng) were incubated with the peptide analogs for 48 hours at 37°C in a 96-well culture plate, followed by the addition of 100 µg MTT and further incubation of 1 hour. The formazan crystals formed inside the cells were dissolved with a detergent comprising of 10% Sodium dodecyl sulfate and 0.01 N HCl and optical density read on a multiscan ELISA reader. The optical density was directly proportional to the number of proliferating and metabolically active cells. SEQ ID NO: 6

[7] = test system: PA-1 (Ovary); assay: as above; assay type: cell-based
Description: as §2

[8] = test system: HeP2 (Larngeal); assay: as above; assay type: cell-based
Description: as §2

[9] = test system: HBL100 (Breast); assay: as above; assay type: cell-based
Description: as §2

[10] = test system: KB (Oral squamous); assay: as above; assay type: cell-based
Description: as §2

[11] = test system: ECV304 (Endothelial); assay: as above; assay type: cell-based
Description: as §2

[12] = test system: L132 (Lunng); assay: as above; assay type: cell-based
Description: as §2

SMILES: CC(C)C[C@H](NC(=O)[C@@H](Cc1c[nH]c2ccccc12)NC(=O)[C@H](Cc1ccccc1)NC(=O)[C@@H](Cc1c[nH]c2ccccc12)NC(=O)[C@H](CCC(N)=O)NC(=O)[C@@H](Cc1ccccc1)NC(=O)[C@@H]1CCCN1C(=O)[C@H](CCCCN)NC(=O)[C@@H]1CCCN1C(=O)[C@H](N)CCCNC(=N)N)C(=O)NC1(C(N)=O)CCCC1 [SEQ ID NO: 5, D-Arg-Pro-Lys-Pro-D-Phe-Gln-D-Trp-Phe-D-Trp-Leu-Ac5c-NH2] (HELM PEPTIDE1{[dR].P.K.P.[dF].Q.[dW].F.[dW].L.[O=C(C1(N[*:1])CCCC1)[*:2]].[am]}$$$$V2.0)
- Percentage cytotoxicity at different concentrations ([1]; 100pM): 18±3.4%
- Percentage cytotoxicity at different concentrations ([1]; 1nM): 15 ± 5.8%
- Percentage cytotoxicity at different concentrations ([1]; 10nM): 19 ± 3.3%
- Percentage cytotoxicity at different concentrations ([1]; 100nM): 21 ± 1.2%
- Percentage cytotoxicity at different concentrations ([1]; 1µM): 20 ± 2.3%
- Percentage cytotoxicity at different concentrations ([1]; 10µM): 23 ± 2.3%
- Percentage cytotoxicity at different concentrations ([2]; MCF-7, 100pM): Nil
- Percentage cytotoxicity at different concentrations ([2]; MCF-7, 1nM): 2.4 ± 1.2%
- Percentage cytotoxicity at different concentrations ([2]; MCF-7, 10nM): 7.5 ± 1.5%
- Percentage cytotoxicity at different concentrations ([2]; MCF-7, 100nM): 8.6 ± 1.6%
- Percentage cytotoxicity at different concentrations ([2]; MCF-7, 1µM): 12.4 ± 2.6%
- Percentage cytotoxicity at different concentrations ([2]; MCF-7, 10µM): 18.4 ± 6.4%
- Percentage cytotoxicity at different concentrations ([3]; 100pM): Nil
- Percentage cytotoxicity at different concentrations ([3]; 1nM): 3.1 ± 0.5%
- Percentage cytotoxicity at different concentrations ([3]; 10nM): 3.1 ± 1.9%
- Percentage cytotoxicity at different concentrations ([3]; 100nM): 6.7 ± 1.3%
- Percentage cytotoxicity at different concentrations ([3]; 1µM): 25.5 ± 4.8%
- Percentage cytotoxicity at different concentrations ([3]; 10µM): 35.5 ± 4.8%
- Percentage cytotoxicity at different concentrations ([4]; 100pM): 3.7± 0.5%
- Percentage cytotoxicity at different concentrations ([4]; 1nM): 3.1 ± 0.5%
- Percentage cytotoxicity at different concentrations ([4]; 10nM): 5.0 ± 0.7%
- Percentage cytotoxicity at different concentrations ([4]; 100nM): 4.5 ± 0.5%
- Percentage cytotoxicity at different concentrations ([4]; 1µM): 17.06 ± 1.9%
- Percentage cytotoxicity at different concentrations ([4]; 10µM): 37.2 ± 5.3%
- Percentage cytotoxicity at different concentrations ([5]; Su8686, 100pM): Nil
- Percentage cytotoxicity at different concentrations ([5]; Su8686, 1nM): 3 ± 0.3%
- Percentage cytotoxicity at different concentrations ([5]; Su8686, 10nM): 12 ± 2.8%
- Percentage cytotoxicity at different concentrations ([5]; Su8686, 100nM): 9 ± 3.8%
- Percentage cytotoxicity at different concentrations ([5]; Su8686, 1µM): 22 ± 3.3%
- Percentage cytotoxicity at different concentrations ([5]; Su8686, 10µM): 25 ± 4.3%

SMILES: CC(=O)N[C@H](CCCNC(=N)N)C(=O)N1CCC[C@H]1C(=O)N[C@@H](CCCCN)C(=O)N1CCC[C@H]1C(=O)N[C@H](Cc1ccccc1)C(=O)N[C@@H](CCC(N)=O)C(=O)N[C@H](Cc1c[nH]c2ccccc12)C(=O)N[C@@H](Cc1ccccc1)C(=O)N[C@H](Cc1c[nH]c2ccccc12)C(=O)N[C@@H](CC(C)C)C(=O)NC1(C(N)=O)CCCC1 [SEQ ID NO: 6, Acetyl-D-Arg-Pro-Lys-Pro-D-Phe-Gln-D-Trp-Phe-D-Trp-Leu-Ac5c-NH2] (HELM PEPTIDE1{[ac].[dR].P.K.P.[dF].Q.[dW].F.[dW].L.[O=C(C1(N[*:1])CCCC1)[*:2]].[am]}$$$$V2.0)
- Percentage cytotoxicity at different concentrations ([6]; 1nM): 26.9 ± 3.5%
- Percentage cytotoxicity at different concentrations ([6]; 10nM): 32.9 ± 2.4%
- Percentage cytotoxicity at different concentrations ([6]; 100nM): 34.7 ± 1.9%
- Percentage cytotoxicity at different concentrations ([6]; 1µM): 31.8 ± 3.2%
- Percentage cytotoxicity at different concentrations ([7]; 1nM): 8.0 ± 24%
- Percentage cytotoxicity at different concentrations ([7]; 10nM): 22.0 ± 3.4%
- Percentage cytotoxicity at different concentrations ([7]; 100nM): 25.4 ± 2.6%
- Percentage cytotoxicity at different concentrations ([7]; 1µM): 13.9 ± 3.3%
- Percentage cytotoxicity at different concentrations ([8]; 1nM): 10.0 ± 3.2%
- Percentage cytotoxicity at different concentrations ([8]; 10nM): 14.8 ± 4.4%
- Percentage cytotoxicity at different concentrations ([8]; 100nM): 24.9 ± 1.5%
- Percentage cytotoxicity at different concentrations ([8]; 1µM): 13.8 ± 2.4%
- Percentage cytotoxicity at different concentrations ([9]; 1nM): 28.5 ± 4.5%
- Percentage cytotoxicity at different concentrations ([9]; 10nM): 28.4 ± 1.8%
- Percentage cytotoxicity at different concentrations ([9]; 100nM): 31.8 ± 1.5%
- Percentage cytotoxicity at different concentrations ([10]; 1nM): 28.0 ± 2.3%
- Percentage cytotoxicity at different concentrations ([10]; 10nM): 29.0 ± 1.3%
- Percentage cytotoxicity at different concentrations ([10]; 100nM): 18.0 ± 2.6%
- Percentage cytotoxicity at different concentrations ([10]; 1µM): 2.0 ± 1.3%
- Percentage cytotoxicity at different concentrations ([11]; 1nM): 9.0 ± 3.7%
- Percentage cytotoxicity at different concentrations ([11]; 10nM): 13.8 ± 3.3%
- Percentage cytotoxicity at different concentrations ([11]; 100nM): 15.9 ± 2.3%
- Percentage cytotoxicity at different concentrations ([11]; 1µM): 12.9 ± 2.2%
- Percentage cytotoxicity at different concentrations ([12]; 1nM): 14.9 ± 2.9%
- Percentage cytotoxicity at different concentrations ([12]; 10nM): 24.7 ± 3.2%
- Percentage cytotoxicity at different concentrations ([12]; 100nM): 19.5 ± 4.6%
- Percentage cytotoxicity at different concentrations ([12]; 1µM): 19.7 ± 2.5%

SMILES: CCCCCCCC(=O)N[C@H](CCCNC(=N)N)C(=O)N1CCC[C@H]1C(=O)N[C@@H](CCCCN)C(=O)N1CCC[C@H]1C(=O)N[C@H](Cc1ccccc1)C(=O)N[C@@H](CCC(N)=O)C(=O)N[C@H](Cc1c[nH]c2ccccc12)C(=O)N[C@@H](Cc1ccccc1)C(=O)N[C@H](Cc1c[nH]c2ccccc12)C(=O)N[C@@H](CC(C)C)C(=O)NC1(C(N)=O)CCCC1 [SEQ ID NO: 8, Octanoyl-D-Arg-Pro-Lys-Pro-D-Phe-Gln-D-Trp-Phe-D-Trp-Leu-Ac5c-NH2] (HELM PEPTIDE1{[CCCCCCCC(=O)[*:2]].[dR].P.K.P.[dF].Q.[dW].F.[dW].L.[O=C(C1(N[*:1])CCCC1)[*:2]].[am]}$$$$V2.0)
- Percentage cytotoxicity at different concentrations ([6]; 1nM): 23.9 ± 3.3%
- Percentage cytotoxicity at different concentrations ([6]; 10nM): 33.9 ± 2.2%
- Percentage cytotoxicity at different concentrations ([6]; 100nM): 28.9 ± 1.4%
- Percentage cytotoxicity at different concentrations ([6]; 1µM): 21.8 ± 3.4%
- Percentage cytotoxicity at different concentrations ([7]; 1nM): 22.1 ± 3.4%
- Percentage cytotoxicity at different concentrations ([7]; 10nM): 26.9 ± 3.4%
- Percentage cytotoxicity at different concentrations ([7]; 100nM): 39.0 ± 2.6%
- Percentage cytotoxicity at different concentrations ([7]; 1µM): 34.4 ± 3.4%
- Percentage cytotoxicity at different concentrations ([8]; 1nM): 12.5 ± 3.2%
- Percentage cytotoxicity at different concentrations ([8]; 10nM): 15.5 ± 4.4%
- Percentage cytotoxicity at different concentrations ([8]; 100nM): 24.9 ± 2.5%
- Percentage cytotoxicity at different concentrations ([8]; 1µM): 12.9 ± 3.4%
- Percentage cytotoxicity at different concentrations ([9]; 1nM): 9.0 ± 4.5%
- Percentage cytotoxicity at different concentrations ([9]; 10nM): 28.6 ± 3.8%
- Percentage cytotoxicity at different concentrations ([9]; 100nM): 30.6 ± 1.5%
- Percentage cytotoxicity at different concentrations ([9]; 1µM): 25.8 ± 1.4%
- Percentage cytotoxicity at different concentrations ([10]; 1nM): 28.0 ± 3.5%
- Percentage cytotoxicity at different concentrations ([10]; 10nM): 29.0%
- Percentage cytotoxicity at different concentrations ([10]; 100nM): 23.0 ± 3.2%
- Percentage cytotoxicity at different concentrations ([10]; 1µM): 19.0 ± 4.3%
- Percentage cytotoxicity at different concentrations ([11]; 1nM): 16.9 ± 3.5%
- Percentage cytotoxicity at different concentrations ([11]; 10nM): 31.9 ± 3.3%
- Percentage cytotoxicity at different concentrations ([11]; 100nM): 24.6 ± 2.3%
- Percentage cytotoxicity at different concentrations ([11]; 1µM): 17.9 ± 2.4%
- Percentage cytotoxicity at different concentrations ([12]; 1nM): 11.9 ± 4.9%
- Percentage cytotoxicity at different concentrations ([12]; 10nM): 27.5 ± 3.5%
- Percentage cytotoxicity at different concentrations ([12]; 100nM): 16.9 ± 3.6%
- Percentage cytotoxicity at different concentrations ([12]; 1µM): 18.6 ± 2.4%
